# Source: patent US6423334B1, “Composition and method for enhancing transport across gastrointestinal tract cell layers” (priority 1997, dated 2002)
# Legend:
# Caco-2 monolayers [1] = assay: TEER of Caco-2 monolayers during flux experiments; assay type: cell-based, human; conditions: for overall decrease in resistance (TEER) of control cells / decrease in TEER: 2 hour flux; for overall decrease in resistance (TEER) of control cells: labelled drug alone, no enhancer
# Protocol: Part a: Caco-2 monolayers (passage 20-40; 20-30 days post seeding on filters) were treated apically for 20-30 min with the 8mM and 40 mM Babassu oil in Hanks+25 mM Hepes. The oil was removed and replaced with Hanks containing 100 IU/ml Kraeber low molecular weight heparin. […] Transepithelial electrical resistance (TEER) measurements were taken at regular intervals for 20 min and subsequently every 30 min after the oil was removed with the Evohmeter (WPI) and chopsticks as shown in Table 4. The results are expressed as mean±S.E. (statistical differences examined using the two sided independent t-test).
# (§1) A further 2 hour transepithelial transport study was carried out as above for [^3H]-TRH (0.12 nM) except that excess TRH (cold, 4.4 mM; Bachem, UK) was also administered apically. […] No significant difference between TRH Papp values at low concentrations (0.05-0.1 nM) and high TRH concentrations (4.4 mM) was observed providing evidence of passive TRH absorption across the monolayer.
# (§2) Statistically significant differences existed between Babassu TEER results and those of the other oils (2 mM) at each 30 minute interval except between Babassu oil and Almond oil at the T=30 sampling. No significant differences in TEER was observed between Almond oil, Palm Kernel oil and Maize oil. The average 30% reduction in TEER observed for Almond, Palm Kernel and Maize oils at 2 mM during the 2 hour flux was not evident in the presence of Babassu oil (2 mM).
# [2] = Flux of [3H]-TRH across Caco-2 monolayers; assay type: in vitro ADME, human; conditions: human, Caco-2
# Protocol: (§3) The cell monolayers were incubated as given in Example 4 above.
# as §1, §2
# Caco-2 monolayers [3] = assay: Flux of [3H]-TRH across Caco-2 monolayers; assay type: in vitro ADME, human
# Protocol: as §3, §1, §2
# Caco-2 monolayers [4] = conditions: human, Caco-2, 2 h, 0.04 nM, pH 7.4
# Protocol: (§4) The cell monolayers were incubated with prewarmed Hanks balanced salt solution (HBSS modified by adding 1 g glucose/I—final concentration 11 mM glucose and 24 mM Hepes, pH 7.4) at 37° C. for 30 minutes, adding 1 ml to apical and 2 ml to the basolateral side. At T=0, apical HBSS was replaced with 1 ml HBSS containing the mannitol transport solution and the plates were placed in a 37° C. incubator on an orbital shaker. Samples were taken from the apical side at T=0 and T=120 min and from the basolateral side every 30 min. The resulting samples were measured by liquid scintillation spectrophotometry using a Wallac 1409.
# (§5) An experiment similar to the above transepithelial transport of mannitol experiment was conducted except that cytochalasin D (1 μg/ml), a potent tight junction opener, was added apically and basolaterally at time zero instead of the Babassu oil.
# (§6) Following the procedures of the 2 hour flux experiments of Example 4 above, [^3H]-mannitol (0.04 nM) was added apically to Caco-2 monolayers in the presence of 0.1 mM, 5.0 mM, and 10 mM Almond Oil, 0.1 mM, 2.0 mM, 2.5 mM, 5.0 mM and 10 mM Palm Kernel oil as well as 0.1 mM, 1 mM and 2 mM Maize oil.
# in vitro = conditions: human
# Protocol: as §4, §5, §6
"Papp A→B at 2 h, 0.12 nM [2] [nm/s]","Papp A→B at 2 h, 0.2 nM [2] [nm/s]",TRH transported across the Caco-2 monolayer (Caco-2 monolayers [3]; Caco-2) [%],% Transport per hour (Caco-2 monolayers [4]) [%],"Papp A→B at 2 h, 0.04 nM (in vitro; Caco-2, pH 7.4, Papp) [nm/s]","Papp A→B at 2 h, 0.04 nM (in vitro; Caco-2, pH 7.4, apparent permeability coefficient (Papp) of mannitol) [nm/s]",SMILES,overall decrease in resistance (TEER) of control cells (Caco-2 monolayers [1]) [%],"reduction in TEER (Caco-2 monolayers [1]; [3H]-TRH 0.12 nM in the presence and absence of excess cold TRH (4.4 mM), 2 hours)",decrease in TEER (Caco-2 monolayers [1]; Cytochalasin D with [3H]-TRH) [%],decrease in TEER (Caco-2 monolayers [1]; Cytochalasin D with [3H]-mannitol) [%],"reduction in TEER (Caco-2 monolayers [1]; cytochalasin D 1 μg/ml apically and basolaterally, mannitol flux) [%]","initial reduction in TEER (Caco-2 monolayers [1]; cytochalasin D 1 μg/ml, TRH flux, first hour) [%]","additional reduction in TEER (Caco-2 monolayers [1]; cytochalasin D 1 μg/ml, TRH flux, remaining hour) [%]",apparent permeability coefficient (Papp) of TRH (Caco-2 monolayers [3]; in the presence of cytochalasin D 1 μg/ml) [nm/s]
5.3,7.2 ± 0.25,0.2,,,,"NC(=O)[C@@H]1CCCN1C(=O)[C@H](Cc1cnc[nH]1)NC(=O)[C@@H]1CCC(=O)N1 [TRH, Thyrotropin releasing hormone]",29.2,approximately 20%,,,,,,
,,,,,,C=C1[C@@H](C)[C@H]2[C@H](Cc3ccccc3)NC(=O)[C@]23[C@H](OC(C)=O)/C=C/[C@@](C)(O)C(=O)[C@@H](C)C/C=C/[C@H]3[C@@H]1O [cytochalasin D],,,50,59,60,40,22,57
,,,0.28,7.9 ± 0.3,7.9,"OC[C@@H](O)[C@@H](O)[C@H](O)[C@H](O)CO [mannitol, mannitol, D -[1-^3H (n)]]",12.8,,,,,,,
